One data set can be described thus: in vivo. Conditions: mouse, po, 120 mg/kg.
The subject of the next data set is HIV-1/MN in MT-2-cells. As to the kind of experiment: Protection of HIV-1/MN-infected MT-2-cells, reverse transcriptase activity. The data set is classed as cell-based. Conditions: Human immunodeficiency virus 1, MT2, 96 h; 90% reduction of RT activity; HIV-1-infected MT-2-cells; 4 days; read-out: ED90 (the source's name). From the text: In a further test it can be shown that compounds of formula I protect cells normally infected by HIV from such an infection or at least slow down such an infection. For this test, MT-2-cells infected with HIV-1/MN are used. MT-2-cells have been transformed with a continuous producer of HTLV-1 (a virus causing leukaemia); they are therefore especially sensitive to the cytopathogenic effect of HIV. MT-2-cells can be obtained via the AIDS Research and Reference Reagent Program, Division of AIDS, NIAID, NIH from Dr. Douglas Richman (see J. Biol. Chem. 263, 5870-5875 (1988) and also Science 229, 563-566 (1985)). The MT-2-cells are cultured in RPMI 1640-medium (Gibco, Scotland; RPMI comprises an amino acid mixture without glutamine) supplemented with 10% heat-inactivated foetal calf serum, glutamine and standard antibiotics. In all cases the cells, and also the virus stock solution used for the infection (HIV-1/MN), are free of mycoplasms. The virus stock solution is prepared as a cell culture supernatant of the permanently infected cell line H9/HIV-1/MN, which can likewise be obtained via the AIDS Research and Reference Program, Division of AIDS, NIAID, NIH from Dr. Robert Gallo (see also Science 224, 500-503 (1984) and Science 226, 1165-1170 (1984)). The titre of the HIV-1/MN virus stock solution (determined by titration onto MT-2-cells) is 4.2×10^5 TCID50/ml (TCID50=Tissue Culture Infective Dose=dose that infects 50% of the MT-2-cells). In order to measure the infection-inhibiting action of the compounds of formula I, 50 μl of the test compound in question in culture medium and 2800 TCID50 of HIV-1/MN in 100 μl of culture medium are added to 2×10^4 exponentially growing MT-2-cells which have been applied in 50 μl of culture medium to 96-well microtitre plates (having a round base). After 4 days' incubation (at 37° C., 5% CO2) a 10 μl sample of the supernatant is taken from each well, transferred to a further 96-well microtitre plate and (if necessary) stored at -20° C. In order to measure the activity of the virus-associated reverse transcriptase, 30 μl of reverse transcriptase (RT) cocktail are added to each sample. The reverse transcriptase cocktail consists of 50 mM Tris (α,α,α-tris(hydroxymethyl)methylamine, Ultra pur, Merck, Germany) pH 7.8; 75 mM KCl, 2 mM dithiothreitol, 5 mM MgCl2; 0.1% Nonidet P40 (detergent; Sigma, Switzerland), 0.8 mM EDTA, 10 μg/ml Poly-A (Pharmacia, Uppsala, Sweden) and 0.16 μg/ml oligo(T) (=pdT(12-18), Pharmacia, Uppsala, Sweden) as "template primer"--if desired, the mixture is filtered through a […] Acrodisc filter (Gelman Sciences Inc., Ann Arbor, USA). It is stored at -20° C. Prior to the test, 0.1% (v/v) [alpha-^32 P]dTTP is added to aliquots of the solution in order to establish a final radioactivity of 10 μCi/ml.
After mixing, the plate is incubated for 2 hours at 37° C. 5 μl of the reaction mixture are transferred to DE81 paper (Whatman, one filter per well). The dried filters are washed three times for 5 minutes with 300 mM NaCl/25 mM trisodium citrate and then once with ethanol and again dried in the air. The radioactivity on the filters is measured in a Matrix Packard 96-well counter (Packard, Zurich, Switzerland). The ED90 values are calculated and are defined as the concentration of the test compound that reduces the RT activity by 90% in comparison with a control without test compound. […]

In the next data set the target is T1, HIV-1-protease (Human immunodeficiency virus type 1 group M subtype B, UniProt P04585).
T1 construct: made in house
Put plainly: HIV-1-protease inhibition with icosapeptide substrate […] (HPLC). Type of data set: biochemical. Conditions: pH 6.0, 37° C., 1 hour, icosapeptide 122 μM. Here is the method: The inhibitory action of the compounds of formula I on the proteolytic activity of HIV-1-protease can be shown, for example, analogously to the method described by A. D. Richards et al., J. Biol. Chem. 265(14), 7733-7736 (1990). In that method the inhibition of the action of HIV-1-protease (prepared in accordance with S. Billich et al., J. Biol. Chem. 263(34), 17905-17908 (1990)) is measured in the presence of the icosapeptide […] SEQ ID NO:1, a synthetic substrate of HIV-1-protease, prepared by peptide synthesis in accordance with known procedures, see J. Schneider et al., Cell 54, 363-368 (1988)), which contains as substrate analogue one of the cleavage sites of the gag-precursor protein (natural substrate of HIV-1-protease). That substrate and its cleavage products are analysed by high performance liquid chromatography (HPLC).
The test compound is dissolved in dimethyl sulfoxide. The enzymatic test is carried out by adding suitable dilutions of the inhibitor in 20 mM β-morpholinoethanesulfonic acid (MES) buffer pH 6.0 to the test mixture. That mixture consists of the above-mentioned iscosapeptide (122 μM) in 20 mM MES-buffer pH 6.0. 100 μl are used per test batch. The reaction is started by the addition of […] of HIV-1-protease solution and is stopped after one hours incubation at 37° C. by the addition of 10 μl of 0.3M HClO4. After centrifugation of the sample at 10,000×g for 5 minutes, […] of the resulting supernatant are applied to a 125×4.6 mm Nucleosil® C18-5m-HPLC column (reversed-phase material supplied by Macherey & Nagel, Duren, FRG, based on silica gel that has been charged with C18 alkyl chains). The uncleaved icosapeptide and its cleavage products are eluted from the column by means of the following gradient: 100% eluant 1→50% eluant 1+50% eluant 2 (eluant 1: 10% acetonitrile, 90% H2 O, 0.1% trifluoroacetic acid (TFA); eluant 2: 75% acetonitrile, 25% H2 O, 0.08% TFA) for 15 minutes, throughflow rate 1 ml/min. The quantification of the eluted peptide fragments is carried out by measuring the peak height of the cleavage product at 215 nm.
In the test system described above (with […]), SEQ ID NO:1 the following IC50 values are obtained for Examples 1 to 5: […]

Another data set concerns virus replication. Conditions: in words; cited from earlier work.
Another data set deals with HIV-protease. Conditions: cited from earlier work.
For data set [1] the following is noted: in vivo; cited from earlier work.
Data set [2] concerns CD4-lymphocytes in the blood. Conditions: AIDS patients, in words; cited from earlier work.
The conditions of data set [3]: in vivo, po; cited from earlier work.

Method for in vivo: In order to determine their pharmacokinetics, the compounds of formula I are dissolved in dimethyl sulfoxide (DMSO) in a concentration of 240 mg/ml. The resulting solutions are diluted 1:20 (v/v) with 20% (w/v) aqueous hydroxypropyl-β-cyclodextrin solution in order to obtain a concentration of the test compound in question of 12 mg/ml. The resulting solution is treated briefly with ultrasound and administered orally to female BALB/c mice (Bomholt-garden, Copenhagen, Denmark) by artificial tube feeding at a dose of 120 mg/kg. At fixed times (for example 30, 60, 90, 120 min) after administration, mice are sacrificed and the plasma stored in heparinised test tubes. The blood is centrifuged (12,000×g, 5 min) and the plasma removed. The plasma is deproteinised by the addition of an equal volume of acetonitrile. The mixture is mixed using a vortex mixer and left to stand at room temperature for 20 to 30 minutes. The precipitate is pelleted by centrifugation (12,000×g, 5 min), and the concentration of the test compound is determined by reversed phase high performance liquid chromatography (HPLC).
The HPLC analysis of the samples obtained in accordance with the method described above is carried out on a 125×4.6 mm Nucleosil® C18 -column (reversed-phase material supplied by Macherey & Nagel, Duren, Germany, based on silica gel derivatised with carbon radicals having 18 carbon atoms), using a 2 cm long preliminary column of the same column material. The test is carried out with the following linear acetonitrile/water gradient (in each case in the presence of 0.05% trifluoroacetic acid): 20% acetonitrile to 100% acetonitrile for 20 min; then 5 min 100% acetonitrile; then returning to the initial conditions for 1 min and 4 min reequilibration. The flow rate is 1 ml/min. […] The test compound is detected by UV absorption measurement at 255 nm. Peaks are identified by the retention time and the UV spectrum between 205 and 400 nm. The concentrations are determined by the external standard method; the peak heights are obtained for determining the concentrations by comparison with standard curves.

`COC(=O)N[C@H](C(=O)N[C@@H](Cc1ccccc1)[C@@H](O)CN(Cc1ccc(-c2ccccc2)cc1)NC(=O)[C@@H](NC(=O)OC)C(C)(C)C)C(C)C` [Example 1, 1-(4-Biphenylyl)-2-N-(N-methoxycarbonyl-(L)-tert-leucyl)-amino-4(S)-hydroxy-5(S)-N-(N-methoxycarbonyl-(L)-valyl)-amino-6-phenyl-2-azahexane]: in the data set “in vivo”, the concentration at 0.5 h amounted to 6330 nM and the concentration at 1.5 h was found to be 5350 nM. Moreover, the EC90 in the data set with HIV-1/MN in MT-2-cells came to 3 µM. In addition, the IC50 at HIV-1-protease was found to be 0.051 µM.

For the molecule `COC(=O)N[C@H](C(=O)N[C@@H](Cc1ccccc1)[C@@H](O)CN(Cc1ccc(-c2ccccc2)cc1)NC(=O)[C@@H](NC(=O)OC)C(C)(C)C)C(C)(C)C` [Example 5, 1-(4-Biphenylyl)-4(S)-hydroxy-5(S)-2,5-bis[N-(N-methoxycarbonyl-(L)-tert-leucyl)-amino]-6-phenyl-2-azahexane], in “in vivo”, the concentration at 0.5 h was 5530 nM and the concentration at 1.5 h was 4910 nM. For the same molecule, in the data set on HIV-1/MN in MT-2-cells, the EC90 is 3 µM. The molecule also registered an IC50 on HIV-1-protease of 0.058 µM.

In the data set “in vivo”, `COC(=O)N[C@H](C(=O)NN(Cc1ccc(-c2ccccc2)cc1)C[C@H](O)[C@H](Cc1ccccc1)NC(=O)[C@@H](NC(=O)OC)C(C)(C)C)C(C)C` [Example 2, 1-(4-Biphenylyl)-2-N-(N-methoxycarbonyl-(L)-valinyl)-amino-4(S)-hydroxy-5(S)-N-(N-methoxycarbonyl-(L)-tert-leucyl)-amino-6-phenyl-2-azahexane] returned a concentration at 0.5 h of 640 nM and a concentration at 1.5 h of 1110 nM. For the same molecule, the EC90 in the data set on HIV-1/MN in MT-2-cells came out at 3 µM. This molecule yielded an IC50 against HIV-1-protease of 0.085 µM.

In the data set “in vivo”, `COC(=O)N[C@H](C(=O)N[C@@H](Cc1ccccc1)[C@@H](O)CN(Cc1ccc(-c2ccccc2C#N)cc1)NC(=O)[C@@H](NC(=O)OC)C(C)(C)C)C(C)C` [Example 4, 1-[4-(2-Cyanophenyl)phenyl)-2-N-(N-methoxycarbonyl-(L)-tert-leucyl)-amino-4(S)-hydroxy-5(S)-N-(N-methoxycarbonyl-(L)-valyl)-amino-6-phenyl-2-azahexane] had a concentration at 0.5 h of 1680 nM and a concentration at 1.5 h of 1930 nM. Besides, the EC90 in the data set on HIV-1/MN in MT-2-cells came out at 3 µM. Further, half-maximal inhibition at HIV-1-protease (IC50) was put at 0.043 µM.

Turning to `CC(C)(C)NC(=O)[C@@H]1C[C@@H]2CCCC[C@@H]2CN1C[C@@H](O)[C@H](Cc1ccccc1)NC(=O)[C@H](CC(N)=O)NC(=O)c1ccc2ccccc2n1` [Ro 31-8959, N-tert-butyl-decahydro-2-[2(R)-hydroxy-4-phenyl-3(S)-[[N-2-quinolyl-carbonyl-L-asparaginyl]amino]butyl]-(4aS,8aS)-isoquinoline-3(S)-carboxamide], the “virus replication in cell experiments” value in the data set with virus replication is reported as “suppression of virus replication”. Besides, the “inhibitory action against HIV-protease in vitro” value with HIV-protease is “exhibits an inhibitory action”. Further, the “blood levels in humans” value in data set [1] is listed as “usable blood levels”. For the same molecule, in data set [2], the “surrogate-marker (titre of the CD4-lymphocytes)” value was “initial positive effects”. Besides, the “blood levels in rodents” value in data set [3] is “blood levels that are still usable”.

In “in vivo”, `COC(=O)N[C@H](C(=O)NN(Cc1ccc(-c2ccccc2C#N)cc1)C[C@H](O)[C@H](Cc1ccccc1)NC(=O)[C@@H](NC(=O)OC)C(C)(C)C)C(C)C` [Example 3, 1-[4-(2-Cyanophenyl)phenyl]-2-N-(N-methoxycarbonyl-(L)-valyl)-amino-4(S)-hydroxy-5(S)-N-(N-methoxycarbonyl-(L)-tert-leucyl)-amino-6-phenyl-2-azahexane] returned a concentration at 0.5 h of 1420 nM and a concentration at 1.5 h of 1950 nM. Also, the EC90 with HIV-1/MN in MT-2-cells came to 10 µM. At HIV-1-protease, the IC50 is 0.038 µM.

The term IC50 denotes the concentration that inhibits the measured activity by half. Higher therefore signals weaker potency in that assay.

Source of the values: US6225345A, “Azahexane derivatives as substrate isosters of retroviral asparate proteases” (Novartis AG, priority 1995, dated 2001).
